The text below walks through data of patent US10301292B2, “Bicyclic compound” (Takeda Pharmaceutical Company Limited, priority 2014, dated 2019).

In this assay the target is T1, human ACC1 (Homo sapiens, UniProt Q13085).
T1 construct: His tag (from vector pFAST-BacHTc; protein captured on Ni-NTA) (N); made in house; host or cells: SF-9 insect cells, recombinant baculovirus BAC-ACC1
The assay is described as follows: Measurement of ACC1 inhibitory activity (Malonyl-CoA production, RapidFire-mass spectrometry). Type of assay: biochemical. To be noted: 10 μM of the test compound; recombinant human ACC1; read-out: ACC1 inhibitory rate (%) at 10 μM. The essentials:
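Sf9-expressed His-tagged human ACC1, diluted to 0.2 μg/ml in HEPES pH 7.5/MgCl2/citrate/DTT/0.001% BSA, was preincubated 60 min at RT with compound. Reaction started with substrate solution (50 mM KHCO3, 200 μM ATP, 200 μM acetyl-CoA), ran 30 min at RT, then was formic acid-quenched. Malonyl-CoA was quantified by RapidFire-MS against malonyl-13C3-CoA.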

As for `CC(NC(N)=O)c1ccc2nc(-c3ccc(Oc4cccc(OCC5CC5)c4)nc3)oc2c1` (stereo not shown) [Example 98, 1-(1-(2-(6-(3-(cyclopropylmethoxy)phenoxy)pyridin-3-yl)-1,3-benzoxazol-6-yl)ethyl)urea], the inhibition at 10 µM was found to be 98%.
